# Laboratory results: patent US20050032844A1, “Methods for regulating nicotine metabolism” (Nicogen, Inc., priority 1996, published 2005)
# Where “and” joins values, the source holds several entries; their conditions need not be identical. Identical values can stand only once. Entries after “also recorded” stand apart in the source; their conditions may differ. Counter-ions that a name gives are not always drawn. Like-named read-outs stand apart in the source and are kept apart here.
# Experiments:
# CYP2D6 [1] = target: T1, CYP2D6 (Homo sapiens, UniProt P10635); assay: in vitro; conditions: pH 7.4
# [2] = tested on: nicotine to cotinine metabolism by human liver microsomes; assay: Chemical inhibition studies of nicotine to cotinine metabolism in 30 human liver microsomes and K27 microsomes; type: biochemical; conditions: for rank order of potency in inhibiting cotinine formation: 10 and 100 μM inhibitor, 50 μM nicotine, K27 liver microsomes; for mean inhibition of cotinine formation (mean±SD): 150 μM inhibitor (each), 100 μM (S)-nicotine, 30 human liver microsomes
# Description: Chemical inhibition studies. […] To maximize inhibition, and reduce the loss due to its own metabolism, a concentration of 150 μM was chosen for each specific inhibitor. […] This concentration was chosen to maximize the contributions of each cytochrome P450 involved in nicotine metabolism, since each enzyme would likely have varying affinities for nicotine. […] High and low concentrations ([…]) of coumarin, 7methylcoumarin, 7-methoxycoumarin, and 7-ethoxycoumarin were incubated with 50 μM nicotine in K27 human liver microsomes.
# [3] = in humans; cited from earlier work
# CYP2A6 [4] = target: T2, CYP2A6 (Homo sapiens, UniProt P11509); assay: Clinical study of methoxsalen pre-treatment before subcutaneous nicotine in dependent smokers; type: in vivo; parameters: 200 μl human liver microsomes (0.5 mg/ml); from tissue; host or cells: human liver microsomes (donor livers K12, K26, K27, K28)
# T2 sequence (P11509 1-494): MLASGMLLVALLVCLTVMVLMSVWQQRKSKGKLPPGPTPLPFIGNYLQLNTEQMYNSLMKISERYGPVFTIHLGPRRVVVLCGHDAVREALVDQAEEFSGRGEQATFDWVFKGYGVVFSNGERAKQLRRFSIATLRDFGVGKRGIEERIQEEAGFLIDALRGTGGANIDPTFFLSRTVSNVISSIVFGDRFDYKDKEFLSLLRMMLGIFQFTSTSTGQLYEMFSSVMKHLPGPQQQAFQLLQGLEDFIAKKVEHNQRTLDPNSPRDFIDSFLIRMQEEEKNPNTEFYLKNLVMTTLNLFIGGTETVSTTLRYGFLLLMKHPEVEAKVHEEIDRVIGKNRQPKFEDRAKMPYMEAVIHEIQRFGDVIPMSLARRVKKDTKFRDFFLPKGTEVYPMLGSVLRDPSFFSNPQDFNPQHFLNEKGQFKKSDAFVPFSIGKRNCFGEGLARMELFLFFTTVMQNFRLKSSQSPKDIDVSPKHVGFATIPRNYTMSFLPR
# Description: Frequent blood samples were drawn over 6 hours for measurement of nicotine and cotinine concentrations in plasma and measures of nicotine effects (e.g., heart rate; blood pressure; symptoms and urges and desires to smoke).
# Each subject abstained from tobacco, food, beverages (other than water), and any inconsistently used drugs from midnight before each study day but continued to take any regularly scheduled drugs allowed by the protocol (e.g., oral contraceptives, daily vitamins). Before baseline measures were taken, a breath CO sample (Ecolyzer) was taken to assess compliance with the smoking abstinence (<10 ppm expected). The subsequent daily schedule is summarized here. All measurements are with respect to a time zero at 8 AM, at which time the first of three hourly nicotine injections were given. Nicotine was injected at 0, +1, and +2 hours.
# Baseline physiologic and subjective measures were taken at −30 minutes, +30 minutes, and hourly thereafter until +5.5 hours, approximately coinciding with the expected peak plasma nicotine concentrations after each injection. Blood samples were taken at least hourly, more often around the expected peaks after the first and third injections, as described below.
# Sterile nicotine bitartrate was obtained from Sigma Chemical. […] Nicotine injections of 31 μg/kg (expressed as the base) in sterile saline were used. […] The solutions were passed through a viral filter to remove any remote risk of viral or bacterial contamination.
# Using an indwelling venous catheter, 8 ml blood samples were drawn every hour from +0 to +6 hours, and additional blood samples were taken at 15, 25, and 40 minutes after the first and third nicotine injections to characterize the kinetics around the expected time of the peak concentration, 25 minutes from injection. Samples that could not be immediately centrifuged for extraction of plasma were stored on ice for at most one hour before centrifugation.
# Plasma (nicotine, cotinine) and urinary nicotine and cotinine were measured using an HPLC ion exchange column assay, using an electrochemical detector for nicotine and a UV detector for other compounds. The sensitivity of the nicotine assay was <1 ng/ml and that of the cotinine was <5 ng/ml. Conjugates in urine were determined after hydrolysis with beta-glucuronidase.
# CYP2A6 [5] = target: T2, CYP2A6; assay: biochemical
# Description: Coumarin, 7-methylcoumarin, 7-methoxycoumarin and 7-ethoxycoumarin, at 10 and 100 μM concentrations, were incubated with 50 μM nicotine in K27 human liver microsomes. Furthermore, nicotine at 10, 30 and 50 μM concentrations was incubated using K27 liver microsomes in the presence of 0, 1, 2 and 5 μM concentrations of coumarin.
# Microsomes were removed from −70° C. freezer and thawed on ice. […] The reaction was stopped by adding 100 μl to 20% Na2CO3 (pH 11.4).
# in vitro = conditions: human, human liver microsomes
# Description: The reaction was started by adding NADPH.
# Ethyl acetate (3 mls) was added for extraction purposes.
# Data Analysis. […] [formula]
# [6] = smokers infused with 2 μg/kg/min×30 minutes
# CYP2D6 [7] = target: T1, CYP2D6; conditions: human liver microsomes, Wu, 1993; cited from earlier work
# [8] = in vivo; cited from earlier work
# CYP2A6 [9] = assay: Antisense knockdown of CYP2A6 protein in h2A6 lymphoblast cells (Western blot); type: cell-based, human
# Description: (§1) In order to test the feasiblility of using antisense oligodeoxynucleotides (ASO) for the reduction of the CYP2A6 enzyme we designed 4 ASO to four different parts of the human CYP2A6 gene and mRNA sequence. The ability to decrease CYP2A6 protein was tested in 2 different human cell lines. The first was a human lymphoblast cell line (h2A6) with a plasmid expression system containing the human CYP2A6 cDNA which is commercially available from Gentest Corp (Woburn, Mass.) and the second was a human hepatic cell line which expresses CYP2A6 (HepG2).
# The h2A6 P450 cells were grown to 3×10^6 cells, the media removed and 5 μg ASO and 20 μg/ml lipofectin was added in 1 ml of 5% horse serum supplemented media. The cells were grown for 24 hr when a further 4 mls of complete media (10% horse serum) was added and the cells were grown for an additional 48 hr. Each cell sample was then washed 3 times with phosphate buffered saline, pelleted and frozen. […] These studies were then repeated using the addition of missense oligodeoxynucleotides (MSO) controls for this sequence. The MSO controls have 2 nucleotides switched at the 5 and 3 prime end.
# CYP2A6 [10] = assay: Antisense knockdown of CYP2A6 protein in HepG2 cells; type: cell-based, human; conditions: 2 μg ASO, relative to control untreated and MSO#23 treated cells
# Description: as §1
# The human hepatic HepG2 cells, which express CYP2A6, were grown and aliquoted at 1.0×10^5 cells and grown for 48 hrs in 2 mls complete media (10% fetal calf serum). After 48 hr, 2 μg ASO oligos and 15 μg/ml lipofectin was added in 1 ml 5% FCS media and grown for 24 hr. Cells then trypsinized and washed for Western blots or fixed with 4% paraformaldehyde for Immunocytochemistry.
# [11] = tested on: nicotine to cotinine metabolism by K20 human liver microsomes
# [12] = tested on: nicotine to cotinine metabolism by K20 human liver microsomes; assay: Quinidine and coumarin inhibition of cotinine formation in K20 human liver microsomes
# [13] = seven smokers, methoxsalen vs placebo
# T1 sequence (P10635 whole entry): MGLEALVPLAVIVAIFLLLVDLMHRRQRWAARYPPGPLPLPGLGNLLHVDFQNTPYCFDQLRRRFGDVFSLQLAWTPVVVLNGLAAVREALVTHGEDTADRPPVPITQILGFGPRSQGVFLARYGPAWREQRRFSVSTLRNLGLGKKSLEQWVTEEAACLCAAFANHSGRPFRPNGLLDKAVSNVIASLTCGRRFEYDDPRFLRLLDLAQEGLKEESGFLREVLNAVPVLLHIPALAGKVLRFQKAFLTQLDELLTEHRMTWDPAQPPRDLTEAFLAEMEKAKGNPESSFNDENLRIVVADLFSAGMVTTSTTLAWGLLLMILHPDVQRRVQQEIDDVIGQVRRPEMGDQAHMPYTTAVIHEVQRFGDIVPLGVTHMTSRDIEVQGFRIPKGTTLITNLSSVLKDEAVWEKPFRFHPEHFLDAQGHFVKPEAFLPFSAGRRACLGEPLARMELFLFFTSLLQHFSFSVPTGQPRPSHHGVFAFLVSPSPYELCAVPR
compound,measurement,setting,value
"COc1ccc2c(c1)[C@]13CCCC[C@@H]1[C@H](C2)N(C)CC3 [dextromethorphan, Dextromethorphan hydrobromide]",Km at 30 min,CYP2D6 [1],5.79 ± 2.01 µM
Cc1ccc2ccc(=O)oc2c1 [7-methylcoumarin],rank order of potency in inhibiting cotinine formation,[2],coumarin>7-methoxycoumarin>7-methylcoumarin>7-ethoxycoumarin
CO[C@H]1C[C@H](O[C@H]2[C@H](C)[C@@H](O[C@@H]3O[C@H](C)C[C@H](N(C)C)[C@H]3OC(C)=O)[C@@H](C)C[C@@]3(CO3)C(=O)[C@H](C)[C@@H](OC(C)=O)[C@@H](C)[C@@H](C)OC(=O)[C@@H]2C)O[C@@H](C)[C@@H]1OC(C)=O [troleandomycin],mean inhibition of cotinine formation (mean±SD),[2],3%
"COc1c2occc2cc2ccc(=O)oc12 [methoxsalen, 9-Methoxy-7H-furol[3,2-g][1]benzopyran-7-one]",half-life,[3],about 1 hour
same,change in nicotine concentrations,"CYP2A6 [4]; plasma, seven subjects, FIG. 25",large changes
same,desire to smoke and urge to smoke,CYP2A6 [4]; [13],significant decreased desire to smoke and urge to smoke
same,expectation that a cigarette would be pleasant,CYP2A6 [4]; [13],significant decrease
same,subjective and physiologic effects accompanying increased plasma nicotine,CYP2A6 [4]; [13],"significant increase in nausea, anxiousness, difficulty concentrating, systolic blood pressure"
CCN(CC)C(=S)S [diethyldithiocarbamic acid],Ki,CYP2A6 [5],14.5 µM
"CN1CCC[C@H]1c1cccnc1 [nicotine, (S)-nicotine]",Km at 45 min,"in vitro; pH 7.4, apparent Km, formation of cotinine (mean±SD), 30 human liver microsomes",66.7 ± 31.8 µM
same,Km at 45 min,"in vitro; pH 7.4, mean Km, nicotine to cotinine (mean±SD), 30 human livers",66.6 ± 31.8 µM
same,urine concentration of NIC,[6],> 80 ng/mL
same,inhibition of dextromethorphan metabolism by CYP2D6,CYP2D6 [7],did not inhibit
Cc1ccccc1C(OCCN(C)C)c1ccccc1 (stereo not drawn) [orphenadrine],estimated half-life,[8],about 14 h
O=c1ccc2ccccc2o1 [coumarin],mean inhibition of cotinine formation (mean±SD),[2],over 80%
same,mean inhibition of cotinine formation (mean±SD),[2]; listed as Coumarin,84%±11% and 84±11%
same,rank order of potency in inhibiting cotinine formation,[2],strongest inhibitory effect; also recorded: coumarin>7-methoxycoumarin>7-methylcoumarin>7-ethoxycoumarin
same,nature of inhibition of nicotine metabolism,[2]; Cornish-Bowden plots,competitive
same,Ki,"[2]; K27 human liver microsomes, n=3, Dixon plot, read-out: apparent Ki, inhibition of nicotine metabolism",~2 µM
same,Ki,"[2]; ex vivo in human liver microsomes, read-out: Ki, inhibition of NIC metabolism to COT",1.5 µM
COc1ccc2ccc(=O)oc2c1 [7-methoxycoumarin],rank order of potency in inhibiting cotinine formation,[2],coumarin>7-methoxycoumarin>7-methylcoumarin>7-ethoxycoumarin
O=C1C[C@@H](c2ccc(O)cc2)Oc2cc(O)cc(O)c21 [naringenin],Ki,CYP2A6 [5],4.3 µM
"ASO#23: antisense oligodeoxynucleotide, CYP2A6 mRNA 333-353, exon 2 3 prime end: CCATAGCCTTTGAAGACCCAG (DNA, backbone and methylation of C not given here)","CYP2A6 immunoreactivity, first test of 4 ASO","CYP2A6 [9]; 5 μg ASO, Western blot",effective at removing the CYP2A6 immunoreactivity
same,"amount of CYP2A6, repeat with MSO controls",CYP2A6 [9]; relative to untreated control cells and MSO#23-treated cells,effectively deceased the amount of CYP2A6
same,CYP2A6 protein,CYP2A6 [10],profound decreases in CYP2A6 protein
C=C[C@H]1C[N@@]2CC[C@H]1C[C@@H]2[C@@H](O)c1ccnc2ccc(OC)cc12 [quinidine],inhibition,[11],~20% and 25%
same,inhibition of cotinine formation,[12]; 0.1 μM inhibitor,no inhibition
same,inhibition of cotinine formation,[12]; 1.0 μM inhibitor,no inhibition
same,inhibition of cotinine formation,[12]; 10 μM inhibitor,8%
CCOc1ccc2ccc(=O)oc2c1 [7-ethoxycoumarin],rank order of potency in inhibiting cotinine formation,[2],coumarin>7-methoxycoumarin>7-methylcoumarin>7-ethoxycoumarin
